From paper PMC2897767, “Two Distinct Mechanisms for Actin Capping Protein Regulation—Steric and Allosteric Inhibition” (PLoS Biology, 2010)
Entries after “also recorded” stand apart in the source; their conditions may differ. Blank lines part the entries; values can stand above or below the substance they belong to. Where no end group is shown, it is not given here.

Tests used:
CPfull (wild type CP) = test: Actin polymerization assay (barbed end elongation from spectrin-actin seeds): inhibition of CP capping; format: biochemical, chicken; conditions: actin 1.2 µM (5% pyrene-labeled); for inhibition of barbed end capping by CARMIL peptides: 3.6 nM CPfull, various peptide concentrations, 25°C (Figure 9D); for inhibition of CP capping activity by V-1 proteins: 3 nM wild type CP, various concentrations of V-1, 25°C (Figure S2)
Description: (A) Superposition of the C-termini of the peptides. CD Phe505 and CK Arg169 are shown as stick models. The conserved proline at the C-terminus of the motifs is shown as balls. (B) CD2AP constructs used for biochemical assays. (C) CARMIL constructs used for biochemical assays. […] Actin (1.2 µM, 5% pyrene-labeled) was polymerized from spectrin-actin seeds in the presence of 3.6 nM CPfull (D), 10 nM CPβΔC (E), or 7.2 nM CPfull (F) with various concentrations of CARMIL peptides or GST-CA constructs.
The barbed end elongation assay from spectrin-actin seeds was performed essentially as previously described. Briefly, G-actin was stored in G-buffer (0.2 mM CaCl2, 0.2 mM ATP, 0.5 mM DTT and 10 mM imidazole, pH 7.0). At 90 s prior to polymerization, the Ca^2+ was replaced with Mg^2+, by the addition of 1/10 volume of 10 mM EGTA and 1 mM MgCl2 to G-actin. […] Actin polymerization was measured by monitoring the pyrene-actin fluorescence (excitation 370 nm; emission 410 nm) at 25°C.
(0.16 MB TIF) Click here for additional data file.

CP [1] = test: SPR competition with immobilized GST-CA92 for CP binding; parameters: species or system chicken; conditions: 50 nM wild type CP pre-mixed with various concentrations of peptide (Figure S7)
Description: (§1) GST-fusion proteins (GST-V-1, GST-CA, or GST-CD) were immobilized onto a CM5 sensor chip up to 200 RU (response units; 200 pg/mm^2) via anti-GST antibodies. […] Response curves were obtained by subtracting the background signal generated simultaneously on a control flow cell with immobilized GST. […] Kinetic parameters were determined by fitting the sensorgrams to a simple 1∶1 binding model, using the Bia-evaluation software (GE Healthcare). KD values were obtained from the kinetic rate constants.
(0.25 MB TIF) Click here for additional data file.

[2] = system: CP wt / GST-V-1 interaction; test: SPR assay of the effect of CARMIL peptides on CP/V-1 binding; parameters: species or system chicken CP, human V-1
Description: GST-V-1 was immobilized on a sensor chip.
as §1

CP [3] = test: SPR binding of CP to immobilized GST-CD2AP / GST-CARMIL fragments; parameters: species or system chicken; conditions: 20°C; for koff / kon: SPR (Biacore), CP perfused, 1:1 binding model; for koff: GST-fusion immobilized; for kon: GST-fusion immobilized via anti-GST antibody on CM5 chip, 50 mM KCl, 1 mM MgCl2, 0.005% Tween-20, 10 mM imidazole pH 7.0
Description: Expression vectors for chicken CPfull and CPΔβC were constructed in pETDuet-1 by PCR, using pET-3d/CP [38] as the template. CP was expressed in E. coli Rosetta2 (DE3) and was purified as described. V-1 (human), expressed in E. coli Rosetta2 (DE3) as a GST-fusion protein, was affinity-purified and the tag was removed. Synthetic peptides derived from CARMIL proteins were obtained from Invitrogen. For crystallization, CP was incubated with a 1.2–2.0-fold molar excess of V-1 or CARMIL peptides at 4°C for 2 h, followed by gel filtration to purify the complexes. Expression vectors for the GST-CA constructs were prepared from the mouse cDNA clone as previously described. Vectors for GST-CD fragments were constructed by PCR cloning using a human whole brain cDNA library (Clontech) as the template. Amplified DNA fragments were cloned into pGEX-6P-1. GST-fusion proteins were expressed in E. coli Rosetta2 (DE3) cells and affinity-purified using glutathione sepharose resin. Mutations were introduced using a Quikchange mutagenesis kit (Stratagene). Actin was prepared from rabbit skeletal muscle, as previously described, and was further purified by gel filtration chromatography. Pyrene labeled-actin was prepared as described. Spectrin-actin seeds were prepared from rabbit red blood cells, as previously described.
(§2) The binding affinities of CP for V-1 or CARMIL proteins were evaluated by surface plasmon resonance measurements with Biacore 3000 or Biacore 2000 instruments (GE Healthcare). GST-fusion proteins (GST-V-1, GST-CA, or GST-CD) were immobilized onto a CM5 sensor chip up to 200 RU (response units; 200 pg/mm^2) via anti-GST antibodies. CP at various concentrations in running buffer (50 mM KCl, 1 mM MgCl2, 0.005% Tween-20, 10 mM imidazole, pH 7.0) was perfused over the chip at 20°C, at a flow rate of 20 µl/min. Response curves were obtained by subtracting the background signal generated simultaneously on a control flow cell with immobilized GST. To measure the effect of the CARMIL peptides on the facilitation of CP/V-1 dissociation (in Figure 11C and 11D), we used the “co-inject” mode for successive injections of the peptides followed by CP. Kinetic parameters were determined by fitting the sensorgrams to a simple 1∶1 binding model, using the Bia-evaluation software (GE Healthcare). KD values were obtained from the kinetic rate constants. […] KD values were evaluated by plotting these values against the concentrations of CP.

CPfull (CP wt) = test: SPR binding of CP to immobilized V-1; parameters: species or system chicken; conditions: V-1 mutant immobilized, analyte CP wt, equilibrium KD from Michaelis-Menten plots at saturated binding, not detectable = no binding at highest concentrations tested (≥ 50 µM)
Description: as §2
^a Kinetic parameters were determined by fitting of the sensorgrams to a 1:1 binding model. KD = koff / kon .
^b Kinetic parameters were not determined for mutant proteins, due to the fast dissociation of the complex (koff > 0.1 s^-1). […]

competition with immobilized GST-CA92 for CP binding (CP [1]): effectively compete | facilitation of dissociation of CP from immobilized GST-V-1 ([2]; 45 nM CP wt perfused first, then 100 nM peptide, versus buffer control (Figure 11C)): CP dissociated from V-1 quite rapidly | inhibition of CP/V-1 complex formation ([2]; GST-V-1 immobilized, 100 nM peptide premixed with 45 nM CP wt (Figure 11A)): strongly inhibited
Substance: CD23: synthetic peptide, human CD2AP residues 485–507 (CP-binding motif) (NLLHLTANRPKMPGRRLPGRFNG; UniProt Q9Y5K6 485-507, looked up, fragment)
inhibition of barbed end capping by CARMIL peptides (CPfull (wild type CP)): moderately inhibited

Substance: CD30: peptide with 7 extra residues at the C-terminus of CD23 (NLLHLTANRPKMPGRRLPGRFNGGHSPTHS; UniProt Q9Y5K6 485-514, looked up, fragment)
inhibition of barbed end capping by CARMIL peptides (CPfull (wild type CP)): higher CP inhibition activity than CD23

koff (CP [3]; pH 7.0): >0.1 s⁻¹ | KD (in words) (CP [3]; SPR, pH 7.0): micromolar range
Substance: GST-CA55: GST fusion of mouse CARMIL residues 962–1016 (FPSVRQEKRSSGLISELPSEEGRRLEHFTKLRPKRNKKQQPTQAAVCTISILPQD; also: GST fusion, end not given here)

koff (CP [3]; pH 7.0): >0.1 s⁻¹
Substance: GST-CD43: GST fusion of human CD2AP residues 461–503 (FDSLTVRTSKETDVVNFDDIASSENLLHLTANRPKMPGRRLPG; also: GST fusion, end not given here)

kon (CP [3]): 540000 M⁻¹ s⁻¹ | koff (CP [3]; pH 7.0): 0.033 s⁻¹
Substance: GST-CD44: GST fusion of human CD2AP residues 461–504 (FDSLTVRTSKETDVVNFDDIASSENLLHLTANRPKMPGRRLPGR; also: GST fusion, end not given here)

kon (CP [3]): 1.6e+06 M⁻¹ s⁻¹ | koff (CP [3]; pH 7.0): 0.029 s⁻¹
Substance: GST-CD47: GST fusion of human CD2AP residues 461–507 (FDSLTVRTSKETDVVNFDDIASSENLLHLTANRPKMPGRRLPGRFNG; also: GST fusion, end not given here)

KD (CPfull (CP wt)): not detectable ^c
Substance: V-1 D44R: V-1 point mutant Asp44 to Arg
inhibition of CP capping activity by V-1 proteins (CPfull (wild type CP)): little inhibitory effect; also recorded: minimal effects on CP capping

Kd (CPfull (CP wt)): 21 µM
Substance: V-1 E78R: V-1 point mutant Glu78 to Arg
inhibition of CP capping activity by V-1 proteins (CPfull (wild type CP)): little inhibitory effect; also recorded: minimal effects on CP capping

Substance: V-1 W8A: V-1 point mutant Trp8 to Ala
inhibition of CP capping activity by V-1 proteins (CPfull (wild type CP)): little inhibitory effect; also recorded: minimal effects on CP capping
